PubChem BioAssay AID330 (DTP/NCI, 2004)
Values joined by “and” are separate entries in the source; they are usually repeats but may differ in a detail not shown here. Identical values can stand only once. Toxic doses and inconclusive results are not listed.

System: P388 leukemia ip, CD2F1 mice, survival T/C
Assay: NCI In Vivo Anticancer Drug Screen. Data for tumor model P388 Leukemia (intraperitoneal) in CD2F1 (CDF1) mice
Conditions: endpoint: median survival time, higher = longer survival
Outline: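 Mice carrying the transplanted tumor received test compound or vehicle. Survival was recorded in each group, and the value is the treated-group measurement divided by that of the vehicle-treated control group.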

[1] = dose: 50.0 mg/kg/injection, schedule: Q01DX009 (ip), vehicle: saline
[2] = dose: 100.0 mg/kg/injection, schedule: Q01DX009 (ip), vehicle: saline
[3] = dose: 200.0 mg/kg/injection, schedule: Q01DX009 (ip), vehicle: saline
[4] = dose: 60.0 mg/kg/injection, schedule: Q01DX005 (ip), vehicle: saline with Tween-80
[5] = dose: 120.0 mg/kg/injection, schedule: Q01DX005 (ip), vehicle: saline with Tween-80
[6] = dose: 100.0 mg/kg/injection, schedule: Q04DX002 (ip), vehicle: Klucel (hydroxypropylcellulose) (HPC)
[7] = dose: 200.0 mg/kg/injection, schedule: Q04DX002 (ip), vehicle: Klucel (hydroxypropylcellulose) (HPC)
[8] = dose: 400.0 mg/kg/injection, schedule: Q04DX002 (ip), vehicle: Klucel (hydroxypropylcellulose) (HPC)
[9] = dose: 50.0 mg/kg/injection, schedule: Q01DX009 (ip), vehicle: saline with Tween-80
[10] = dose: 50.0 mg/kg/injection, schedule: Q01DX005 (ip), vehicle: Klucel (hydroxypropylcellulose) (HPC)
[11] = dose: 100.0 mg/kg/injection, schedule: Q01DX005 (ip), vehicle: Klucel (hydroxypropylcellulose) (HPC)
[12] = dose: 200.0 mg/kg/injection, schedule: Q01DX005 (ip), vehicle: Klucel (hydroxypropylcellulose) (HPC)
[13] = dose: 100.0 mg/kg/injection, schedule: Q04DX002 (ip), vehicle: saline with Tween-80
[14] = dose: 60.0 mg/kg/injection, schedule: Q01DX005 (ip), vehicle: Klucel (hydroxypropylcellulose) (HPC)
[15] = dose: 12.5 mg/kg/injection, schedule: Q01DX009 (ip), vehicle: saline with Tween-80
[16] = dose: 25.0 mg/kg/injection, schedule: Q01DX009 (ip), vehicle: saline with Tween-80
[17] = dose: 25.0 mg/kg/injection, schedule: Q01DX005 (ip), vehicle: Klucel (hydroxypropylcellulose) (HPC)

In the case of `CC1=C(C)C(=O)OC(C(C)(O)C2(O)CCC3(O)C4CC(O)C56OC5C=CC(=O)C6(C)C4CCC32C)C1` (centres undefined), the T/C (dose: 0.75 mg/kg/injection, schedule: Q01DX005 (ip), vehicle: Klucel (hydroxypropylcellulose) (HPC)) is reported as 100 % of control, the T/C (dose: 1.5 mg/kg/injection, schedule: Q01DX005 (ip), vehicle: Klucel (hydroxypropylcellulose) (HPC)) is reported as 102 % of control and the T/C (dose: 3.0 mg/kg/injection, schedule: Q01DX005 (ip), vehicle: Klucel (hydroxypropylcellulose) (HPC)) is reported as 108 % of control. For the same compound, the T/C (dose: 6.0 mg/kg/injection, schedule: Q01DX005 (ip), vehicle: Klucel (hydroxypropylcellulose) (HPC)) was 111 % of control.

`O=C(OCC1N=C1c1ccccc1)c1ccc([N+](=O)[O-])cc1` (centres undefined) was tested, and the T/C (dose: 50.0 mg/kg/injection, schedule: Q04DX003 (ip), vehicle: suspension in saline) was 99 % of control, the T/C (dose: 100.0 mg/kg/injection, schedule: Q04DX003 (ip), vehicle: suspension in saline) was 98 % of control and the T/C (dose: 200.0 mg/kg/injection, schedule: Q04DX003 (ip), vehicle: suspension in saline) was 100 % of control.

In the case of `NC(=S)N/N=C/c1c(-c2ccccc2)nc2n1CCS2`, the T/C (dose: 100.0 mg/kg/injection, schedule: Q01DX001 (ip), vehicle: Klucel (hydroxypropylcellulose) (HPC)) is reported as 100 % of control, the T/C (dose: 200.0 mg/kg/injection, schedule: Q01DX001 (ip), vehicle: Klucel (hydroxypropylcellulose) (HPC)) is reported as 104 % of control and the T/C (dose: 400.0 mg/kg/injection, schedule: Q01DX001 (ip), vehicle: Klucel (hydroxypropylcellulose) (HPC)) is reported as 109 % of control.

With `CC(=O)C(N=Nc1cc([N+](=O)[O-])cc(S(=O)(=O)O)c1O)C(=O)Nc1ccccc1.[Cr]` (centres undefined) the T/C [1] was 107 % of control, the T/C [2] was 99 % of control and the T/C [3] was 97 % of control.

`COC(=O)c1nnn(-c2ccc(Cl)cc2Cl)c1N` was tested, and the T/C [4] was 103 % of control, the T/C [5] was 103 % of control and the T/C (dose: 240.0 mg/kg/injection, schedule: Q01DX005 (ip), vehicle: saline with Tween-80) was 122 % of control.

With `Cc1ccc(-c2cs/c(=N\N=C3/CSC(=O)N3Cc3ccccc3)n2-c2cccc(C)c2)cc1` the T/C [6] was 89 % of control, the T/C [7] was 89 % of control and the T/C [8] was 91 % of control.

In the case of `NC(=S)N/N=C\c1ncccc1OCc1cccc(N)c1`, the T/C (dose: 12.5 mg/kg/injection, schedule: Q01DX009 (ip), vehicle: distilled water + Tween-80) is reported as 122 % of control, the T/C (dose: 12.5 mg/kg/injection, schedule: Q01DX009 (ip), vehicle: other) is reported as 111 % of control and the T/C (dose: 25.0 mg/kg/injection, schedule: Q01DX009 (ip), vehicle: other) is reported as 120 % of control and 124 % of control. The T/C (dose: 200.0 mg/kg/injection, schedule: Q01DX009 (ip), vehicle: distilled water + Tween-80) was 116 % of control, the T/C (dose: 200.0 mg/kg/injection, schedule: Q01DX009 (ip), vehicle: other) was 152 % of control and the T/C (dose: 400.0 mg/kg/injection, schedule: Q01DX009 (ip), vehicle: distilled water + Tween-80) was 100 % of control.

In the case of `O=c1[nH]nc(-c2ccc(Cl)cc2)c2c1[nH]c1ccccc12`, the T/C [4] is reported as 98 % of control and the T/C [5] is reported as 97 % of control.

In the case of `Cc1ccc(S(=O)(=O)NC(CC(=O)OCc2ccccc2)C(=O)OCc2ccccc2)cc1` (centres undefined), the T/C [9] is reported as 101 % of control, the T/C (dose: 100.0 mg/kg/injection, schedule: Q01DX009 (ip), vehicle: saline with Tween-80) is reported as 86 % of control and the T/C (dose: 200.0 mg/kg/injection, schedule: Q01DX009 (ip), vehicle: saline with Tween-80) is reported as 90 % of control.

In the case of `NC(=O)/C(N=Nc1ccccc1S(=O)(=O)O)=N/Nc1ccccc1S(=O)(=O)O`, the T/C [10] is reported as 100 % of control, the T/C [11] is reported as 101 % of control and 92 % of control and the T/C [12] is reported as 101 % of control and 94 % of control.

With `CCCCS(=N)(=O)CCC(N)P(=O)(O)O` (centres undefined) the T/C (dose: 50.0 mg/kg/injection, schedule: Q01DX005 (ip), vehicle: saline) was 93 % of control, the T/C (dose: 100.0 mg/kg/injection, schedule: Q01DX005 (ip), vehicle: saline) was 100 % of control and the T/C (dose: 200.0 mg/kg/injection, schedule: Q01DX005 (ip), vehicle: saline) was 95 % of control.

For `CSC(/C=C1\C=Cc2ccccc2N1C)=NC#N`, the T/C (dose: 25.0 mg/kg/injection, schedule: Q04DX002 (ip), vehicle: saline with Tween-80) was 100 % of control, the T/C (dose: 50.0 mg/kg/injection, schedule: Q04DX002 (ip), vehicle: saline with Tween-80) was 106 % of control and the T/C [13] was 97 % of control.

In the case of `CCOCC[Se]c1ccccc1`, the T/C [1] is reported as 92 % of control, the T/C [2] is reported as 92 % of control and the T/C [3] is reported as 91 % of control.

`O=[N+]([O-])c1ccc(N2N=NC(CN3CCOCC3)C2N2CCOCC2)cc1` (centres undefined) was tested, and the T/C [14] was 111 % of control, the T/C (dose: 120.0 mg/kg/injection, schedule: Q01DX005 (ip), vehicle: Klucel (hydroxypropylcellulose) (HPC)) was 117 % of control and the T/C (dose: 240.0 mg/kg/injection, schedule: Q01DX005 (ip), vehicle: Klucel (hydroxypropylcellulose) (HPC)) was 118 % of control.

With `O=C(O)C(=O)O.O=C(O)C(=O)O.O=C(O)C(=O)O.[Ir]` the T/C (dose: 12.5 mg/kg/injection, schedule: Q04DX003 (ip), vehicle: water) was 120 % of control, the T/C (dose: 25.0 mg/kg/injection, schedule: Q04DX003 (ip), vehicle: water) was 120 % of control and the T/C (dose: 50.0 mg/kg/injection, schedule: Q04DX003 (ip), vehicle: water) was 93 % of control. The T/C (dose: 100.0 mg/kg/injection, schedule: Q04DX003 (ip), vehicle: water) was 98 % of control.

For `O=[N+]([O-])c1cc(F)ccc1O`, the T/C (dose: 6.25 mg/kg/injection, schedule: Q01DX009 (ip), vehicle: saline with Tween-80) was 95 % of control, the T/C [15] was 100 % of control and the T/C [16] was 104 % of control.

For `O=C(O)C1=C/C(=C(/c2ccccc2)c2cc(C(=O)O)c(O)c3ccccc23)c2ccccc2C1=O`, the T/C [1] was 99 % of control, the T/C (dose: 60.0 mg/kg/injection, schedule: Q01DX005 (ip), vehicle: saline) was 104 % of control and the T/C [2] was 100 % of control. The T/C (dose: 120.0 mg/kg/injection, schedule: Q01DX005 (ip), vehicle: saline) was 103 % of control, the T/C [3] was 103 % of control and the T/C (dose: 240.0 mg/kg/injection, schedule: Q01DX005 (ip), vehicle: saline) was 95 % of control.

With `CC1=C(O)NC(CC(=O)C(O)CO)=CN1` (centres undefined) the T/C (dose: 25.0 mg/kg/injection, schedule: Q01DX009 (ip), vehicle: water) was 101 % of control, the T/C (dose: 50.0 mg/kg/injection, schedule: Q01DX009 (ip), vehicle: water) was 100 % of control and the T/C (dose: 100.0 mg/kg/injection, schedule: Q01DX009 (ip), vehicle: water) was 95 % of control. The T/C (dose: 200.0 mg/kg/injection, schedule: Q01DX009 (ip), vehicle: water) was 95 % of control, the T/C (dose: 400.0 mg/kg/injection, schedule: Q01DX009 (ip), vehicle: water) was 111 % of control and the T/C (dose: 800.0 mg/kg/injection, schedule: Q01DX009 (ip), vehicle: water) was 117 % of control.

`COc1ccc(-c2cc(O)c3c(c2N)C(=O)c2c(O)ccc(N)c2C3=O)cc1` was tested, and the T/C [10] was 86 % of control, the T/C [11] was 90 % of control and the T/C [12] was 90 % of control.

In the case of `CC1(c2ccccc2)NN1`, the T/C [13] is reported as 94 % of control, the T/C (dose: 200.0 mg/kg/injection, schedule: Q04DX002 (ip), vehicle: saline with Tween-80) is reported as 95 % of control and the T/C (dose: 400.0 mg/kg/injection, schedule: Q04DX002 (ip), vehicle: saline with Tween-80) is reported as 94 % of control.

For `Cc1cc2nccc(/C=C/c3ccc(N(C)C)cc3)c2cc1C`, the T/C [15] was 102 % of control, the T/C [16] was 110 % of control and the T/C [9] was 92 % of control.

With `N#C/C(=N\Nc1ccc(F)cc1)C(=O)C1CC1` the T/C (dose: 15.0 mg/kg/injection, schedule: Q01DX005 (ip), vehicle: Klucel (hydroxypropylcellulose) (HPC)) was 100 % of control, the T/C (dose: 30.0 mg/kg/injection, schedule: Q01DX005 (ip), vehicle: Klucel (hydroxypropylcellulose) (HPC)) was 106 % of control and the T/C [14] was 98 % of control.

For `Nc1ccc(CNC(=O)COc2cccc(Cl)c2)cc1`, the T/C [6] was 102 % of control, the T/C [7] was 108 % of control and the T/C [8] was 96 % of control.

In the case of `CC1(C)NC2Cc3c([nH]c4ccccc34)C3(C)CCC1CC23` (centres undefined), the T/C (dose: 12.5 mg/kg/injection, schedule: Q01DX005 (ip), vehicle: Klucel (hydroxypropylcellulose) (HPC)) is reported as 94 % of control, the T/C [17] is reported as 94 % of control and the T/C [10] is reported as 89 % of control. For the same compound, the T/C [11] was 108 % of control.

In the case of `CCCCNC(=O)CC(=O)NCCCC`, the T/C [17] is reported as 99 % of control, the T/C [10] is reported as 100 % of control and the T/C [11] is reported as 99 % of control. The T/C [12] was 100 % of control.

For `O=C(Cn1cnc2ccc([N+](=O)[O-])cc21)N1CCN(c2ccccc2)CC1`, the T/C [4] was 93 % of control and the T/C [5] was 93 % of control.
